From BindingDB's records for doi:10.1016/j.ejmech.2017.07.016 (South Dakota State University, 2017)

Assay: Antagonist activity at human CRFR1 expressed in HEK293 cells assessed as inhibition of sauvagine-induced cAMP accumulation by measuring sauvagine EC50 at 1 uM after 30 mins (Rvb = 0.203 nM)

EC50: 1.1 nM
Compound: CCCCN(CC)c1nc(C)nc2c1sc(=N)n2-c1c(C)cc(C)cc1C
